# Reference: PMC5662472 (Chemical communications (Cambridge, England), 2017)
# What was measured:
# [1] = molecular target: Helicobacter pylori α1–3/4-fucosyltransferase (Hp3/4FT) (Helicobacter pylori, UniProt Q9L8S4); assay: HPLC fucosyltransferase assay; conditions: acceptor; co-substrate GDP-Fuc; labelled compound
# [2] = test system: C[C@@H]1O[C@H](OP(=O)(O)OP(=O)(O)OC[C@H]2O[C@@H](n3cnc4c(=O)[nH]c(N)nc43)[C@H](O)[C@@H]2O)[C@@H](O)[C@H](O)[C@@H]1O; assay: purified protein; conditions: donor; co-substrate LacNAcβPro2AA (best acceptor)
Substance,Km [1],Km [2],kcat [2],kcat/Km [2]
Galβ3GlcNAcβPro2AA,1320 ± 240 µM,–,–,–
Helicobacter pylori α1–3/4-fucosyltransferase (Hp3/4FT) (Helicobacter pylori),–,860 ± 130 µM,6.02 ± 0.26 s⁻¹,7010 M⁻¹ s⁻¹
LacNAcβPro2AA,460 ± 70 µM,–,–,–
LacβPro2AA,990 ± 180 µM,–,–,–
